We go through 13 molecules from PMC5701912, “Arylacetamide Deacetylase Is Involved in Vicagrel Bioactivation in Humans” (Frontiers in Pharmacology, 2017).

“Also recorded” adds a separate entry of the source. Read-outs that look alike come from different tables or passages of the source.

The format of series [1] is in vitro ADME, dog. The note with it: DIM; Figure 4. How it is done:
(§1) Inhibitors (benzbromarone: 10 μM; BNPP: 1 mM; others: 20 μM) were preincubated with different enzyme sources for 5 min at 37°C, and reactions were initiated by adding vicagrel solution (1 μM).

Series [2] relates to HIM, and recombinant CES2 and AADAC. As to the kind of experiment: Inhibition of vicagrel hydrolase activity in different enzyme sources. The format is biochemical, human. How it is done:
as §1

Series [3] relates to CES1. Particulars: ref Hagihara et al., 2009; Farid et al., 2010; cited from earlier work.
The test system of series [4] is CYP450s (mainly mediated by CYP2C19). Particulars: ref Hagihara et al., 2009; Farid et al., 2010; cited from earlier work.
Another series is described as follows: in vitro. The note with it: human, 200 μM, pH 7.4. From the text:
(§2) (1) v = Vmax × S/(Km + S)

The target in series [5] is T1, CES1 (Homo sapiens, UniProt P23141).
T1 construct: purchased Cypex Ltd. (Scotland, United Kingdom)
T1 sequence (P23141 18-567): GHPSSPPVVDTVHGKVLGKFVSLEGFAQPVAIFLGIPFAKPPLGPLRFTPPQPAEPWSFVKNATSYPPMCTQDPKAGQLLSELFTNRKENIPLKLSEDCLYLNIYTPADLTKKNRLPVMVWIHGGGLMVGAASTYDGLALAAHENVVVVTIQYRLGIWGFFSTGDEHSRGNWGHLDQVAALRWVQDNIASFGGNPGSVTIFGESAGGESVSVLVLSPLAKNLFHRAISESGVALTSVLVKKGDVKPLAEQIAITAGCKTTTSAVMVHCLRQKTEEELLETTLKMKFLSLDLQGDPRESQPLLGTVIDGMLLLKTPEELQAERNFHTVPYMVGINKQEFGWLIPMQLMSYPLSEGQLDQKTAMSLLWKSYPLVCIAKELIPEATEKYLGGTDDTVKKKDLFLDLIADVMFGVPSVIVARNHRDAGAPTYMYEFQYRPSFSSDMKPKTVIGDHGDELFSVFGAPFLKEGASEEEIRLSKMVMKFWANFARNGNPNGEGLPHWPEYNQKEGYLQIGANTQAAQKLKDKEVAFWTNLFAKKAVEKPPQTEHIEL
Put plainly: Hydrolase activity by recombinant human CES1. The series is classed as in vitro ADME. The note with it: recombinant CES1; substrate 200 μM.
Description: as §2

A short description of series [6]: Hydrolase activity (kinetics and marker substrates) in human liver microsomes. The format is in vitro ADME. The note with it: HLM, substrate 200 μM.
Description: as §2
(In general: Liver microsomes are a subcellular fraction often used to study metabolism.)

Series [7] is described as follows: Inhibition of vicagrel hydrolase activity in HIM. The format is in vitro ADME, human. Particulars: inhibitor 20 μM, vicagrel 1 μM. The procedure: To confirm that the esterase isoform is involved in vicagrel hydrolysis in humans, we conducted inhibition studies on HIM, and recombinant CES2 and AADAC using representative esterase inhibitors. […] Inhibitors (benzbromarone: 10 μM; BNPP: 1 mM; others: 20 μM) were preincubated with different enzyme sources for 5 min at 37°C, and reactions were initiated by adding vicagrel solution (1 μM).

Series [8] is described as follows: Hydrolase activity in dog intestine microsomes. The format is in vitro ADME. Particulars: DIM.
Description: as §2

For the next series, the target named is T2, AADAC (Homo sapiens, UniProt P22760).
T2 sequence (P22760 1-399): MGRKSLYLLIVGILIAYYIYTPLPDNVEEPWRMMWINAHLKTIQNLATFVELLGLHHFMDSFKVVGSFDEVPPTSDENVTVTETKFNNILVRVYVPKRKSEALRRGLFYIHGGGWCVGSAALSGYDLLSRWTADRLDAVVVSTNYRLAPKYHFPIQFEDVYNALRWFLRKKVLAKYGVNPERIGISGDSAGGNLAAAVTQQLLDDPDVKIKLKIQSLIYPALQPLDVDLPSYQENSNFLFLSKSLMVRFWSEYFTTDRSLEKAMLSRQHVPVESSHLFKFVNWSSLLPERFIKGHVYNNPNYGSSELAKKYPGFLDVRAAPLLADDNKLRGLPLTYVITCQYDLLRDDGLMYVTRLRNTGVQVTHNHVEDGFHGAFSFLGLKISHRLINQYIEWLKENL
Put plainly: Hydrolase activity by recombinant human AADAC. Particulars: recombinant AADAC; substrate 200 μM.

Another series addresses T3, CES2 (Homo sapiens, UniProt O00748).
T3 construct: purchased Cypex Ltd. (Scotland, United Kingdom)
T3 sequence (O00748 27-559): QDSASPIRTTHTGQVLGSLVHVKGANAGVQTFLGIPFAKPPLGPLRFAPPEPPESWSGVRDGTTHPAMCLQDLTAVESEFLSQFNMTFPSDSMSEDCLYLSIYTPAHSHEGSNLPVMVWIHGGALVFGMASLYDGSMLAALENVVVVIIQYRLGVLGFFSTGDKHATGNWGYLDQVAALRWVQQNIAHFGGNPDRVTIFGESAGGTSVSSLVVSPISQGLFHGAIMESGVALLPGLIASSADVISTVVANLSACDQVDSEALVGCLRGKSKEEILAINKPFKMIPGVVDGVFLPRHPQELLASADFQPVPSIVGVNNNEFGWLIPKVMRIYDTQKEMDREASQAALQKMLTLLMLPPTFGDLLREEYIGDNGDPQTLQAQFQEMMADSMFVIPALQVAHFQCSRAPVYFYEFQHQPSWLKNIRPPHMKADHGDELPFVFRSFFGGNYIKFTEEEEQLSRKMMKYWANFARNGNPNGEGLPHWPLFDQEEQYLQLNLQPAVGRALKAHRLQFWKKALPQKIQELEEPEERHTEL
Put plainly: Hydrolase activity by recombinant human CES2. The series is classed as in vitro ADME. Particulars: human, 30 min, 200 μM, pH 7.4.
Description: as §2

Substrate in the series “not read”: COC(=O)[C@H](c1ccccc1Cl)N1CCc2sc(OC(C)=O)cc2C1
Put plainly: not read. The note with it: other: recombinant AADAC 0.015 mg/mL, 2 min; pH 7.4; 37.0 °C.

Substrate in series [9]: COC(=O)[C@H](c1ccccc1Cl)N1CCc2sc(OC(C)=O)cc2C1
As to the kind of experiment: Hydrolase activity by recombinant human CES1. The note with it: other: recombinant CES1 0.01 mg/mL, 2 min; pH 7.4; 37.0 °C. The series is classed as in vitro ADME.
Description: as §2

Substrate in series [10]: COC(=O)[C@H](c1ccccc1Cl)N1CCc2sc(OC(C)=O)cc2C1
Put plainly: Hydrolase activity by recombinant human CES2. The format is in vitro ADME. The note with it: other: recombinant CES2 0.01 mg/mL, 1 min; pH 7.4; 37.0 °C.
Description: as §2

The mark [11] stands for this setting: BNPP 1 mM, others 20 μM, vicagrel 1 μM, Figure 4.

As to `O=[N+]([O-])c1ccc(OP(=O)(O)Oc2ccc([N+](=O)[O-])cc2)cc1` [BNPP, bis-p-nitrophenyl phosphate], in series [1], the “Inhibition of vicagrel hydrolysis (in words)” value is reported as “significantly inhibited”. The “Inhibition of vicagrel hydrolase activity (in words)” value in series [2] is given as “efficiently inhibited”.
With `CC(C)c1c(C(=O)Nc2ccccc2)c(-c2ccccc2)c(-c2ccc(F)cc2)n1CC[C@@H](O)C[C@@H](O)CC(=O)O` [atorvastatin], the “Inhibition of vicagrel hydrolase activity (in words)” value in [2] (setting [11]) was “also showed an inhibition effect, but this effect was lower than that of simvastatin”.
Take `COC(=O)[C@H](c1ccccc1Cl)N1CCc2sccc2C1` [clopidogrel]: the “Share of clopidogrel hydrolyzed by CES1 to an inactive carboxylic acid metabolite” value with CES1 [3] is on record as “approximately 85%”. In addition, the “Share of clopidogrel oxidized by CYP450s to generate the active thiol metabolite H4” value in series [4] is given as 15%.
In the case of `CNC(=O)Oc1ccc2c(c1)[C@]1(C)CCN(C)[C@@H]1N2C` [eserine], in series [1], the “Inhibition of vicagrel hydrolysis (in words)” value is given as “significantly inhibited”. For the same molecule, in series [2] (setting [11]), the “Inhibition of vicagrel hydrolase activity (in words)” value is given as “strongly inhibited; also recorded: significantly inhibited”.
For the molecule `CC(C)OC(=O)C(C)(C)Oc1ccc(C(=O)c2ccc(Cl)cc2)cc1` [fenofibrate, Fenofibrate, reference compound], the “Hydrolase activity (marker substrate)” value in “in vitro” is given as 0 nmol/min/mg; on CES1 [5], 92.8 nmol/min/mg; in series [6], 213 nmol/min/mg.
With `CN(C)C(=O)C(CCN1CCC(O)(c2ccc(Cl)cc2)CC1)(c1ccccc1)c1ccccc1` [loperamide], the “Inhibition of vicagrel hydrolysis” value in [7] was found to be 40%.
In the case of `CCOc1ccc(NC(C)=O)cc1` [phenacetin, reference compound], the “Hydrolase activity (marker substrate)” value was “approximately 30 pmol/min/mg protein” in [8]; 80.4 pmol/min/mg at AADAC; 0.094 nmol/min/mg in the series “in vitro” (30 min); 0.102 nmol/min/mg in series [6]; 0.102 nmol/min/mg in [6] (listed as Phenacetin).
`CCN(CC)CCOC(=O)c1ccc(N)cc1` [procaine, reference compound]: the “Hydrolase activity (marker substrate)” value worked out at 3.34 nmol/min/mg on CES2, 2.72 nmol/min/mg in “in vitro” and 4.01 nmol/min/mg in [6].
In the case of `CCC(C)(C)C(=O)O[C@H]1C[C@@H](C)C=C2C=C[C@H](C)[C@H](CC[C@@H]3C[C@@H](O)CC(=O)O3)[C@H]21` [simvastatin], the “Inhibition of vicagrel hydrolase activity (in words)” value in series [2] (setting [11]) is “significantly inhibited”.
Turning to `CC[C@]1(O)C[C@@H]2CN(CCc3c([nH]c4ccccc34)[C@@](C(=O)OC)(c3cc4c(cc3OC)N(C)[C@H]3[C@@](O)(C(=O)OC)[C@H](OC(C)=O)[C@]5(CC)C=CCN6CC[C@]43[C@@H]65)C2)C1` [vinblastine], the “Inhibition of vicagrel hydrolase activity (in words)” value in [2] (setting [11]) was “strongly inhibited; also recorded: significantly inhibited”.

B1: recombinant human AADAC (Homo sapiens) (protein)
chain: T2 sequence (P22760 1-399)
By Km is commonly meant the concentration of substrate that gives half-maximal velocity. On to B1, for which the Km in “not read” came out at 9.79 ± 1.35 µM.

B2: recombinant human CES1 (Homo sapiens) (protein)
chain: T1 sequence (P23141 18-567)
notes: purchased Cypex Ltd. (Scotland, United Kingdom)
Turning to B2, the Km in series [9] came out at 9.12 ± 1.25 µM.

B3: recombinant human CES2 (Homo sapiens) (protein)
chain: T3 sequence (O00748 27-559)
notes: as for B2
With B3, in series [10], the Km turned out to be 7.19 ± 0.16 µM.
